Assay results published in patent US20050032873A1, “3-Amino chroman and 2-amino tetralin derivatives” (Wyeth, priority 2003, published 2005).
Where a name gives a salt, the structure may show the parent alone. Read-outs that look alike come from different tables or passages of the source.

Key:
[1] = target: T1, serotonin transporter (Rattus norvegicus, UniProt P31652); assay: 5-HT transporter affinity: displacement of 3H-paroxetine from male rat cortical membranes; format: binding; settings: displacement of 3H-paroxetine; male rat cortical membranes; read-out: 5-HT Transporter Affinity Ki
T1 construct: displace ^3H-paroxetine from male rat cortical membranes; from tissue; host or cells: male rat cortical membranes

[2] = target: T2, cloned human 5-HT1A receptors (Homo sapiens, UniProt P08908); assay: 35S-GTPγS binding assay, 5-HT1A function; format: biochemical; settings: for IC50: antagonist potency, reversal of 8-OH-DPAT, read-out: 5-HT1A Function GTPγS IC50; for EC50: agonist potency
T2 construct: expressed in transfected cells
T2 sequence (P08908 1-422): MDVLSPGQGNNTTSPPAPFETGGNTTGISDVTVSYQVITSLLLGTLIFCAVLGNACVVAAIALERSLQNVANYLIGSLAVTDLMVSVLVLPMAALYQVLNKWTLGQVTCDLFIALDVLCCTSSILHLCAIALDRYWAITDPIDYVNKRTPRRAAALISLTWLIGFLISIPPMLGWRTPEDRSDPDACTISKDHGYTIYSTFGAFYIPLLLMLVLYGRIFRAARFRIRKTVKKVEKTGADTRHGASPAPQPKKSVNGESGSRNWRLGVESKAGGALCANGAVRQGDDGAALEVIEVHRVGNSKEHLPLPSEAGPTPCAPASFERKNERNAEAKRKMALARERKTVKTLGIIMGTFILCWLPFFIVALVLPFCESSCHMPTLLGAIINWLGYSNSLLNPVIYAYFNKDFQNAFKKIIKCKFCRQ

[3] = target: T3, 5-HT1A receptor (Homo sapiens, UniProt P08908); assay: cAMP accumulation assay, 5-HT1A function; format: cell-based; settings: for IC50: cells marked IC50 (antagonist), read-out: 5-HT1A Function cAMP IC50; for Emax / 5-HT1A Function cAMP (Emax): in brackets after EC50 or IC50; for Emax: read-out: 5-HT1A Function cAMP (Emax); for EC50: cells marked EC50 (agonist)
T3 sequence (P08908 1-422): T2 sequence (P08908 1-422)
From the text: The agonist or antagonist activity at 5-HT1A receptors was established by using two different assays. […] Agonists produce an increase in binding whereas antagonists produce no increase but rather reverse the effects of the standard agonist 8-OH-DPAT. The test compound's maximum stimulatory effect is represented as the Emax, while its potency is defined by the EC50. The test compound's maximum inhibitory effect is represented as the Imax, while its potency is defined by the IC50. The second assay measured cAMP accumulation upon binding of the ligand to the 5-HT1A receptor. […] The test compound's maximum stimulatory or inhibitory effect is represented as the Emax while its potency is defined by either IC50 for an antagonist or EC50 for an agonist. [^3H]-8-OH-DPAT was used to determine maximum agonist or antagonist response in both functional assays.

[4] = target: T3, 5-HT1A receptor; assay: 5-HT1A receptor affinity: displacement of [3H] 8-OH-DPAT; format: binding; set-up: expressed in transfected cells; settings: displacement of [3H] 8-OH-DPAT; CHO cells stably transfected with human 5-HT1A receptors; read-out: 5-HT1A Receptor Affinity Ki
[5] = maximum inhibitory effect, in brackets after IC50, read-out: 5-HT1A Function GTPγS (Imax)
[6] = maximum stimulatory effect, in brackets after EC50, read-out: 5-HT1A Function GTPγS (Emax)
[7] = maximum stimulatory effect, in brackets after EC50

T1 sequence (P31652 whole entry): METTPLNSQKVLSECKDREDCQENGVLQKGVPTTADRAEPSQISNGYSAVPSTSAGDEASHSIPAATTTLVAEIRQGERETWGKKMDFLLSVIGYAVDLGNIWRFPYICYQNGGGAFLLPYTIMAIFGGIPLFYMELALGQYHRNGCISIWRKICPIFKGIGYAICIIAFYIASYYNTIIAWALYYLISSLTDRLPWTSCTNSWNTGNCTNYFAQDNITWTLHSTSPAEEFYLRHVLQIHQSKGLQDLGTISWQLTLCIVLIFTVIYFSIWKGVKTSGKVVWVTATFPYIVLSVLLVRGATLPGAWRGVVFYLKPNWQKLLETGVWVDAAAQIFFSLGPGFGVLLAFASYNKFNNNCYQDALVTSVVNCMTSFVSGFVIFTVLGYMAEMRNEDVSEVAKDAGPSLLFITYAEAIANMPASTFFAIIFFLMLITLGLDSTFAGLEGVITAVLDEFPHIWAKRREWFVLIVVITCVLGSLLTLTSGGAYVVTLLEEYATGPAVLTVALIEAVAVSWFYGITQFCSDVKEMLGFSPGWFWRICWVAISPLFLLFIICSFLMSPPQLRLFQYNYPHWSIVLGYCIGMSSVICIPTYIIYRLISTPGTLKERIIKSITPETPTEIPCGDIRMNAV

Compound | Ki [1] [µM] | IC50 [2] [µM] | Emax [2, 5] [%] | IC50 [3] [µM] | Emax [3] [%] | Ki [4] [µM] | EC50 [2] [µM] | Emax [2, 6] [%] | melting point | EC50 [3] [µM] | 5-HT1A Function GTPγS (Emax) [2, 7] [%] | 5-HT1A Function cAMP (Emax) [3] [%]
NC(=O)c1ccc(F)c2c1CC(NCCCc1c[nH]c3ccc(F)cc13)CO2 (stereo not drawn) (as salt: hydrochloride) [Compound 1, 8-fluoro-3-{[3-(5-fluoro-1H-indol-3-yl)propyl]amino}chromane-5-carboxamide] |  |  |  |  |  |  |  |  | 122 °C (dec.) |  |  | 
CCCN(CCCc1c[nH]c2ccc(F)cc12)C1COc2c(F)ccc(C(N)=O)c2C1 (stereo not drawn) (as salt: hydrochloride) [Compound 2, 8-fluoro-3-{[3-(5-fluoro-1H-indol-3-yl)propyl](propyl)amino}chromane-5-carboxamide] |  |  |  |  |  |  |  |  | 125 °C (dec.) |  |  | 
C[C@H](CCN(C1CCC1)[C@@H]1COc2c(F)ccc(C(N)=O)c2C1)c1c[nH]c2ccc(F)cc12 [Compound 152b, (3S)-3-{cyclobutyl[(3R)-3-(5-fluoro-1H-indol-3-yl)butyl]amino}-8-fluorochromane-5-carboxamide] | 0.182 | 5 | 50 | 0.727 | 0 | 0.322 |  |  |  |  |  | 
C[C@@H](CCN(C1CCC1)[C@@H]1COc2c(F)ccc(C(N)=O)c2C1)c1c[nH]c2ccc(F)cc12 [Compound 153b, (3S)-3-{cyclobutyl[(3S)-3-(5-fluoro-1H-indol-3-yl)butyl]amino}-8-fluorochromane-5-carboxamide] | 0.122 | 1.45 | 64 | 0.166 | 0 | 0.124 |  |  |  |  |  | 
CCN(CCc1coc2c(OC)cccc12)C1COc2c(F)ccc(C(N)=O)c2C1 (stereo not drawn) [Compound 157, 3-{ethyl[2-(7-methoxy-1-benzofuran-3-yl)ethyl]amino}-8-fluorochromane-5-carboxamide] | 0.768 |  |  |  | 0 | 0.0838 | 1.2 | 70 |  |  |  | 
CCCN(CCc1coc2c(OC)cccc12)C1COc2c(F)ccc(C(N)=O)c2C1 (stereo not drawn) [Compound 158, 8-fluoro-3-[[2-(7-methoxy-1-benzofuran-3-yl)ethyl](propyl)amino]chromane-5-carboxamide] | 0.12 |  |  |  | 0 | 0.232 | 10.6 | 59 |  |  |  | 
NC(=O)c1ccc(F)c2c1CC(N(CCCCn1ccc3ccc(F)cc31)CC1CC1)CO2 (stereo not drawn) [Compound 195, 3-{(Cyclopropylmethyl)[4-(6-fluoro-1H-indol-1-yl)butyl]amino}-8-fluorochromane-5-carboxamide] | 0.0125 | 0.371 | 100 |  | 58 | 0.00325 |  |  |  | 0.0219 |  | 
NC(=O)c1ccc(F)c2c1CC(N(CCCCn1ccc3c(F)cccc31)CC1CC1)CO2 (stereo not drawn) [Compound 203, 3-{(Cyclopropylmethyl)[4-(4-fluoro-1H-indol-1-yl)butyl]amino}-8-fluorochromane-5-carboxamide] | 0.161 | 6.06 | 80 |  | 72 | 0.00964 |  |  |  | 0.216 |  | 
[3-(5-fluoro-1H-indol-3-yl)-propyl]-(8-fluoro-5-methoxychroman-3-yl)propylamine [Compound 26] | 0.0125 |  |  |  |  | 0.0194 | 0.21 |  |  | 0.0236 | 79.5 | 83.5
[3-(5-fluoro-1H-indol-3-yl)-propyl]-((3R)-5-methoxychroman-3-yl)propylamine [Compound 24] | 0.00975 |  |  |  |  | 0.00887 | 0.0483 |  |  | 0.00702 | 91.7 | 88.5
[3-(5-fluoro-1H-indol-3-yl)-propyl]-((3S)-5-methoxychroman-3-yl)propylamine [Compound 25] | 0.0165 |  |  |  |  | 0.0243 | 0.155 |  |  | 0.00106 | 88 | 93.5

Further lines, with some results ahead:

Ki [1] [µM] | IC50 [2] [µM] | Emax [2, 5] [%] | IC50 [3] [µM] | Emax [3] [%] | Ki [4] [µM] | EC50 [2] [µM] | Emax [2, 6] [%] | Compound | melting point | EC50 [3] [µM] | 5-HT1A Function GTPγS (Emax) [2, 7] [%] | 5-HT1A Function cAMP (Emax) [3] [%]
0.181 | 2.2 | 100 | 0.544 | 0 | 0.02 |  |  | C[C@H](CCN(C1CCC1)[C@H]1COc2c(F)ccc(C(N)=O)c2C1)c1c[nH]c2ccc(F)cc12 [Compound 152a, (3R)-3-{cyclobutyl[(3R)-3-(5-fluoro-1H-indol-3-yl)butyl]amino}-8-fluorochromane-5-carboxamide] |  |  |  | 
0.0615 | 3.61 | 100 | 0.727 | 0 | 0.0202 |  |  | C[C@@H](CCN(C1CCC1)[C@H]1COc2c(F)ccc(C(N)=O)c2C1)c1c[nH]c2ccc(F)cc12 [Compound 153a, (3R)-3-{cyclobutyl[(3S)-3-(5-fluoro-1H-indol-3-yl)butyl]amino}-8-fluorochromane-5-carboxamide] |  |  |  | 
0.127 |  |  | 0.948 | 0 | 0.0338 | 1.02 | 51 | COc1cccc2c(CCN(CC3CC3)C3COc4c(F)ccc(C(N)=O)c4C3)coc12 (stereo not drawn) [Compound 160, 3-{(cyclopropylmethyl)[2-(7-methoxy-1-benzofuran-3-yl)ethyl]amino}-8-fluorochromane-5-carboxamide] |  |  |  | 
0.0615 |  |  |  | 0 | 0.00209 | 0.0458 | 87 | CCN(CCCc1coc2c(OC)cccc12)C1COc2c(F)ccc(C(N)=O)c2C1 (stereo not drawn) [Compound 162, 3-{ethyl[3-(7-methoxy-1-benzofuran-3-yl)propyl]amino}-8-fluorochromane-5-carboxamide] |  |  |  | 
0.539 |  |  |  | 0 | 0.00074 | 0.00456 | 52 | CCCN(CCCc1coc2c(OC)cccc12)C1COc2c(F)ccc(C(N)=O)c2C1 (stereo not drawn) [Compound 163, 8-fluoro-3-[[3-(7-methoxy-1-benzofuran-3-yl)propyl](propyl)amino]chromane-5-carboxamide] |  |  |  | 
0.428 | 0.446 | 100 | 0.116 | 0 | 0.0119 |  |  | COc1cccc2c(CCCN(C3CCC3)C3COc4c(F)ccc(C(N)=O)c4C3)coc12 (stereo not drawn) [Compound 164, 3-{cyclobutyl[3-(7-methoxy-1-benzofuran-3-yl)propyl]amino}-8-fluorochromane-5-carboxamide] |  |  |  | 
0.913 | 0.116 | 91 | 0.0523 | 0 | 0.00106 | 0.211 | 22 | COc1cccc2c(CCCN(CC3CC3)C3COc4c(F)ccc(C(N)=O)c4C3)coc12 (stereo not drawn) [Compound 165, 3-{(cyclopropylmethyl)[3-(7-methoxy-1-benzofuran-3-yl)propyl]amino}-8-fluorochromane-5-carboxamide] |  |  |  | 
0.187 |  |  | 0.0508 | 0 | 0.00349 | 0.243 | 76 | CCN(CCCCc1coc2c(OC)cccc12)C1COc2c(F)ccc(C(N)=O)c2C1 (stereo not drawn) [Compound 168, 3-{ethyl[4-(7-methoxy-1-benzofuran-3-yl)butyl]amino}-8-fluorochromane-5-carboxamide] |  |  |  | 
0.528 | 0.265 | 100 | 0.0114 | 0 | 0.00148 |  |  | CCCN(CCCCc1coc2c(OC)cccc12)C1COc2c(F)ccc(C(N)=O)c2C1 (stereo not drawn) [Compound 169, 8-fluoro-3-[[4-(7-methoxy-1-benzofuran-3-yl)butyl](propyl)amino]chromane-5-carboxamide] |  |  |  | 
0.457 | 0.158 | 100 | 0.103 | 0 | 0.00072 |  |  | COc1cccc2c(CCCCN(CC3CC3)C3COc4c(F)ccc(C(N)=O)c4C3)coc12 (stereo not drawn) [Compound 170, 3-{(cyclopropylmethyl)[4-(7-methoxy-1-benzofuran-3-yl)butyl]amino}-8-fluorochromane-5-carboxamide] |  |  |  | 
11.2 | 0.404 | 100 | 0.108 | 0 | 0.00427 |  |  | COc1cccc2c(CCCCN(C3CCC3)C3COc4c(F)ccc(C(N)=O)c4C3)coc12 (stereo not drawn) [Compound 171, 3-{cyclobutyl[4-(7-methoxy-1-benzofuran-3-yl)butyl]amino}-8-fluorochromane-5-carboxamide] |  |  |  | 
0.0271 | 0.233 | 100 |  | 77.5 | 0.0374 |  |  | CCN(CCCCn1ccc2cccc(F)c21)C1COc2c(F)ccc(C(N)=O)c2C1 (stereo not drawn) [Compound 189, 3-{Ethyl[4-(7-fluoro-1H-indol-1-yl)butyl]amino}-8-fluorochromane-5-carboxamide] |  | 0.286 |  | 
